In ChEMBL document CHEMBL3046124, “QSAR for Binding Affinity of Substituted Dibenzoylhydrazines to Intact Sf-9 Cells” (J Pestic Sci, 2005):

target: T1, Ecdysone receptor (Spodoptera frugiperda, UniProt Q8MWR1+Q8MWR2); assay: Displacement of [3H]PonA from ecdysone receptor in Spodoptera frugiperda (fall armyworm) Sf-9 cells after 30 min by liquid scintillation counting; type: cell-based
T1 sequence (Q8MWR2 whole entry): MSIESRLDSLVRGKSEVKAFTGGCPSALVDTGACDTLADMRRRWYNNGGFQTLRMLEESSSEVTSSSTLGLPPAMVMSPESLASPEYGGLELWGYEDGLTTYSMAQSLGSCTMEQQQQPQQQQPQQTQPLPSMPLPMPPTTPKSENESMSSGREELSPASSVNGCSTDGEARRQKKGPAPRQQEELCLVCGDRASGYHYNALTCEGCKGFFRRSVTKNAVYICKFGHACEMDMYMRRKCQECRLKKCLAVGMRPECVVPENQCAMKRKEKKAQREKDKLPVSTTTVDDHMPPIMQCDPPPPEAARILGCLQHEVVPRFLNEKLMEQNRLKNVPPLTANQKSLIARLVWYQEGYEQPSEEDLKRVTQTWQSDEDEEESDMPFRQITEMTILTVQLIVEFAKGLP
T1 sequence (Q8MWR1 whole entry): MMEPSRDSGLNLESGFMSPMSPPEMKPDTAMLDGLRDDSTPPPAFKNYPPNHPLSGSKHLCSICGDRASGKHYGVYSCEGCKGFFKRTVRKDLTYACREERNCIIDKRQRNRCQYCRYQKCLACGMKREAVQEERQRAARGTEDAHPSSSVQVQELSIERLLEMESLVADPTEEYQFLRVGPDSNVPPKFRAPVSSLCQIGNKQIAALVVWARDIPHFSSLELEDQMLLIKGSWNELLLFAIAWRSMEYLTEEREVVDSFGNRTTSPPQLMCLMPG

Row | SMILES | IC50 [nM]
1 | CC(C)(C)N(NC(=O)c1ccc([N+](=O)[O-])cc1)C(=O)c1ccccc1Cl | 380
2 | CCc1ccc(C(=O)NN(C(=O)c2ccccc2Cl)C(C)(C)C)cc1 | 12.9
3 | CC(C)c1ccc(C(=O)NN(C(=O)c2ccccc2Cl)C(C)(C)C)cc1 | 15.1
4 | CC(C)(C)N(NC(=O)c1ccc(S(C)(=O)=O)cc1)C(=O)c1ccccc1Cl | 2880
5 | CC(C)(C)N(NC(=O)c1ccc(I)cc1)C(=O)c1ccccc1Cl | 50.1
6 | CC(C)(C)c1ccc(C(=O)NN(C(=O)c2ccccc2Cl)C(C)(C)C)cc1 | 21.9
7 | CC(C)(C)N(NC(=O)c1ccc(C#N)cc1)C(=O)c1ccccc1Cl | 1820
8 | CCCCc1ccc(C(=O)NN(C(=O)c2ccccc2Cl)C(C)(C)C)cc1 | 5.37
9 | CC(C)(C)N(NC(=O)c1ccccc1)C(=O)c1ccccc1Cl | 83.2
10 | Cc1ccc(C(=O)NN(C(=O)c2ccccc2Cl)C(C)(C)C)cc1 | 52.5
11 | CC(C)(C)N(NC(=O)c1ccc(Cl)cc1)C(=O)c1ccccc1Cl | 129
12 | CC(C)(C)N(NC(=O)c1ccc(-c2ccccc2)cc1)C(=O)c1ccccc1Cl | 6760
13 | CC(C)(C)N(NC(=O)c1ccc(F)cc1)C(=O)c1ccccc1Cl | 51.3
14 | COc1ccc(C(=O)NN(C(=O)c2ccccc2Cl)C(C)(C)C)cc1 | 61.7
15 | CCCc1ccc(C(=O)NN(C(=O)c2ccccc2Cl)C(C)(C)C)cc1 | 22.9
16 | CC(C)(C)N(NC(=O)c1ccc(Br)cc1)C(=O)c1ccccc1Cl | 20.4
17 | CC(=O)c1ccc(C(=O)NN(C(=O)c2ccccc2Cl)C(C)(C)C)cc1 | 427
18 | CC(C)(C)N(NC(=O)c1ccc(C(F)(F)F)cc1)C(=O)c1ccccc1Cl | 110
